From publication PMC7643960 (PLoS ONE, 2020)
Entries after “also recorded” stand apart in the source; their conditions may differ.

Assays:
[1] = test system: human carbonic anhydrase isoenzyme II; design: method as in PMID 15664816; conditions: cited from earlier work
[2] = test system: horses affected by EMM; design: method as in PMID 26772157; conditions: two EMM patients, once a week for 19 consecutive weeks; cited from earlier work
[3] = Franz-type diffusion cell (FDC) permeation with HPLC analysis; type: in vitro ADME, horse; conditions: any of the FDC experiments
Source text: Two different pharmaceutical formulations were provided by Skinomics GmbH, Halle, Germany, for in vitro permeation studies.
Skin from six horses was used for each FDC experiment. The skin from the lateral thorax was dissected at the Institute of Pathology, University of Veterinary Medicine Hannover, Foundation, Hannover, Germany, after euthanasia of the horses at the Clinic for Horses, University of Veterinary Medicine Hannover, Foundation, for reasons unrelated to the present study. Therefore, a prospective approval of the experiments by an animal research ethics committee was not required. Skin samples were stored at -20°C until use (maximum five months). Further skin sample preparation and diffusion experiments were performed as reported. Skin samples were incubated with test formulation 1 for 24 h and with test formulation 2 for 30 min and 24 h, respectively.
The following slices were 20-μm thick. […] A higher permeation rate of the compound was expected for 24-h experiments and, therefore, the 20-μm slices were stored and analyzed separately up to a depth of 310 μm. The slices were then pooled at 5 × 20 μm until a depth of a maximal 910 μm was reached. The cryostat blade was cleaned with tissues soaked in 80% methanol between each cut. The quantity of NVX-207 was determined by an analytic high-performance liquid chromatography (HPLC) method. […]

SMILES | inhibition of carbonic anhydrase II [1] | safety of intralesional injection [2] | NVX-207 in the acceptor medium [3]
C=C(C)[C@@H]1CC[C@]2(COS(N)(=O)=O)CC[C@]3(C)[C@H](CC[C@@H]4[C@@]5(C)CC[C@H](OS(N)(=O)=O)C(C)(C)[C@@H]5CC[C@]43C)[C@@H]12 [BBS, (3β)-Lup-20(29)-ene-3,28-diol, 3,28-disulfamate] | efficient inhibitor | – | –
C=C(C)[C@@H]1CC[C@]2(C(=O)OCC(N)(CO)CO)CC[C@]3(C)[C@H](CC[C@@H]4[C@@]5(C)CC[C@H](OC(C)=O)C(C)(C)[C@@H]5CC[C@]43C)[C@@H]12 [NVX-207, 3-acetyl-betulinic acid-2-amino-3-hydroxy-2-hydroxymethyl-propanoate] | – | proved to be safe; also recorded: well tolerated | No NVX-207 was detected
